Each structure is given as a SMILES string. Where a chain is given by its changes, count along the chain named. In brackets after ≈: the same amount, converted by molar mass.

Series [1] addresses T1, Type-1 angiotensin II receptor (Oryctolagus cuniculus, UniProt P34976).
T1 sequence (P34976 whole entry): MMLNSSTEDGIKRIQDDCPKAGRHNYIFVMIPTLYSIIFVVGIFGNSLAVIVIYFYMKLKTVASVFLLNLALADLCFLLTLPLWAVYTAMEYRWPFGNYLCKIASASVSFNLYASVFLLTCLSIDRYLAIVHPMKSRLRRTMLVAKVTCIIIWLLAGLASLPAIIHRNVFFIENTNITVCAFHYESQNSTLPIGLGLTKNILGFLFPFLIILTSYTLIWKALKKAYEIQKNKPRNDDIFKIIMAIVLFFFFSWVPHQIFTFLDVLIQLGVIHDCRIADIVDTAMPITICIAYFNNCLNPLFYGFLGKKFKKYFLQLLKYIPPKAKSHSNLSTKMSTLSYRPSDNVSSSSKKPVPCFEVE
The series is described as follows: Antagonist activity at angiotensin 2 AT1 receptor in Japanese White rabbits thoracic aorta assessed as inhibition of angiotensin II-induced contraction after 60 mins. To be noted: read-out: pA2 (converted).

Series [2] has as its target T2, Type-1 angiotensin II receptor (Homo sapiens) (UniProt P30556).
T2 sequence (whole entry): T1 sequence (P34976 whole entry) with M2I, A49V, V254I, V270I, H272R, K311R, S349T, V353A
The series can be described thus: Ratio of losartan IC50 to compound IC50 for angiotensin 2 AT1 receptor.

Series [3] addresses T3, Type-2 angiotensin II receptor (Homo sapiens, UniProt P50052).
T3 sequence (P50052 whole entry): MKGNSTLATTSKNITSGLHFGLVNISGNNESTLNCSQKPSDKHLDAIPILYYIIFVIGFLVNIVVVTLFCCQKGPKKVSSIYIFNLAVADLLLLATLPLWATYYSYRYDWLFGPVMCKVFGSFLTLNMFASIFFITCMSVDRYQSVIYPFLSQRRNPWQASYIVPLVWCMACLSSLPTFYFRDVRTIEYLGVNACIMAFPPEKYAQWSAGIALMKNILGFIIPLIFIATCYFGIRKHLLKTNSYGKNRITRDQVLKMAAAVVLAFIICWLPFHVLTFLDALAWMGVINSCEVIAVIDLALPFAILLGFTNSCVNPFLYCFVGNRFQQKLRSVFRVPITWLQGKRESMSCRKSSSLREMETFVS
The series is described as follows: Displacement of [125I]Sar1 Ile8-Ang 2 from angiotensin 2 AT2 receptor after 180 mins by gamma counting. (In general: Displacement assays read how much labelled ligand stays bound in the presence of the test substance.)

The target of series [4] is T4, Type-1 angiotensin II receptor (Homo sapiens, UniProt P30556).
T4 sequence (P30556 whole entry): T1 sequence (P34976 whole entry) with M2I, A49V, V254I, V270I, H272R, K311R, S349T, V353A
The series can be described thus: Displacement of [125I]Sar1 Ile8-Ang 2 from angiotensin 2 AT1 receptor after 180 mins by gamma counting.

A short description of series [5]: Toxicity against Photobacterium phosphoreum T3 mutant assessed as inhibition of luminescence after 15 mins by microtox test. In kind it is organism-based. To be noted: Photobacterium phosphoreum T3 mutant (luminescent bacteria), read-out: LC50.
In the next series the test system is Rattus norvegicus. The series is described as follows: Antihypertensive activity in spontaneously hypertensive rat assessed as decrease in blood pressure at 10 mg/kg, po by tail plethysmography. In kind it is functional.

As for `CCCc1nc2c(C)cc(C(=O)NCCc3cc(OC)ccc3OC)cc2n1Cc1ccc(-c2ccccc2C(=O)O)cc1`, the Kb in series [1] was 3.16 nM. Also, in series [2], the Ratio IC50 was 12. Further, the IC50 (as a rule, the concentration needed to halve the response being measured) in series [3] was 1400 nM; in series [4], 1.3 nM. The EC50 (luminescence inhibition) at 0.25 h in series [5] was above 100 µg/mL. Also, in the series with Rattus norvegicus, the Activity is above 30 mmHg.

On to `CCCc1nc2c(C)cc(C(=O)NCCc3ccccc3F)cc2n1Cc1ccc(-c2ccccc2C(=O)O)cc1`, for which, in series [4], the IC50 was 106 nM. Moreover, the EC50 (luminescence inhibition) at 0.25 h in series [5] came to 65 µg/mL (≈ 118 µM).

`CCCc1nc2c(C)cc(C(=O)NCc3ccccc3)cc2n1Cc1ccc(-c2ccccc2C(=O)O)cc1`: the half-inhibitory concentration (IC50) in series [4] amounted to 52.5 nM. Besides, the EC50 (luminescence inhibition) at 0.25 h in series [5] came out at 78 µg/mL (≈ 151 µM).

With `CCCc1nc2c(C)cc(C(=O)NCCc3cccc(OC)c3)cc2n1Cc1ccc(-c2ccccc2C(=O)O)cc1`, the half-inhibitory concentration (IC50) is above 10000 nM in series [3] and 30.8 nM in series [4]. In addition, the EC50 (luminescence inhibition) at 0.25 h in series [5] was 72 µg/mL (≈ 128 µM).

As to `CCCc1nc2c(C)cc(C(=O)NCc3ccc(OC)c(OC)c3)cc2n1Cc1ccc(-c2ccccc2C(=O)O)cc1`, the IC50 is above 10000 nM in series [3] and 30.6 nM in series [4]. The EC50 (luminescence inhibition) at 0.25 h in series [5] was above 100 µg/mL.

`CCCc1nc2c(C)cc(C(=O)NCCc3ccc(OC)c(OC)c3)cc2n1Cc1ccc(-c2ccccc2C(=O)O)cc1`: the IC50 in series [3] came to 1200 nM; in series [4], 57.6 nM. Besides, the EC50 (luminescence inhibition) at 0.25 h in series [5] was above 100 µg/mL.

`CCCc1nc2c(C)cc(C(=O)NCc3ccc(OC)cc3)cc2n1Cc1ccc(-c2ccccc2C(=O)O)cc1`: the Kb in series [1] was 4.79 nM. Also, the IC50 stood at 3600 nM in series [3] and 4.3 nM in series [4]. Besides, the EC50 (luminescence inhibition) at 0.25 h in series [5] is above 100 µg/mL.

As to `CCCc1nc2c(C)cc(C(=O)NCCc3ccc(F)cc3)cc2n1Cc1ccc(-c2ccccc2C(=O)O)cc1`, the values for the IC50 in series [3] and in series [4] were 1300 nM and 198 nM, respectively. The EC50 (luminescence inhibition) at 0.25 h in series [5] amounted to 89 µg/mL (≈ 162 µM).

For the molecule `CCCc1nc2c(C)cc(C(=O)NCc3cccc(OC)c3)cc2n1Cc1ccc(-c2ccccc2C(=O)O)cc1`, the figures for the half-maximal inhibitory concentration (IC50) in series [3] and in series [4] were above 10000 nM and 326 nM, respectively. Besides, in series [5], the EC50 (luminescence inhibition) at 0.25 h is above 100 µg/mL.

Consider `CCCc1nc2c(C)cc(C(=O)NCc3ccccc3OC)cc2n1Cc1ccc(-c2ccccc2C(=O)O)cc1`, for which the Kb in series [1] was 6.92 nM. The IC50 in series [3] was determined as 1100 nM; in series [4], 2.4 nM. In series [5], the EC50 (luminescence inhibition) at 0.25 h was above 100 µg/mL.

`CCCc1nc2c(C)cc(C(=O)NCCc3ccc(OC)cc3)cc2n1Cc1ccc(-c2ccccc2C(=O)O)cc1`: the IC50 in series [3] was found to be 1500 nM; in series [4] it was 214 nM. In addition, the EC50 (luminescence inhibition) at 0.25 h in series [5] is above 100 µg/mL.

The values above are taken from ChEMBL document CHEMBL1944634, “Design, synthesis and biological evaluation of 6-substituted aminocarbonyl benzimidazole derivatives as nonpeptidic angiotensin II AT1 receptor antagonists” (Eur J Med Chem, 2012).
